From ChEMBL document CHEMBL5154652, “Design, synthesis and anti-hepatocellular carcinoma activity of 3-arylisoquinoline alkaloids” (Eur J Med Chem, 2022)
Activity calls are given as the source filed them. The rule behind the calls is not given here.

Legend:
[1] = test system: L02; experiment: Antiproliferative activity against human L02 cells after 72 hrs by MTT assay; assay type: functional, cell-based; conditions: L02, 72 h
[2] = Genotoxicity in human HCCLM9 cells assessed as induction of DNA damage at 20 uM by comet assay; assay type: toxicity, cell-based; conditions: hcclm9, 20 µM
[3] = test system: HCCLM9; experiment: Induction of apoptosis in human HCCLM9 cells at 3.5 to 14 uM measured by Annexin V /propidium iodide staining method; assay type: functional, cell-based; conditions: dose 3.5-14 µM
[4] = test system: HCT-116; experiment: Antiproliferative activity against human HCT-116 cells after 72 hrs by MTT assay; assay type: functional, cell-based; conditions: HCT-116, 72 h
[5] = test system: HCCLM9; experiment: Inhibition of cell invasion in human HCCLM9 cells at 1.25 to 5 uM after 24 hrs; assay type: functional, cell-based; conditions: dose 1.25-5 µM
[6] = test system: DNA; experiment: Binding affinity to DNA (unknown origin) assessed as DNA intercalation at 100 uM measured by unwinding assay relative to control; assay type: nucleic-acid assay; conditions: Homo sapiens
[7] = test system: HCCLM9; experiment: Induction of cell cycle arrest in human HCCLM9 cells assessed as decrease in cell accumulation at S phase at 3.75 to 15 uM measured after 48 hrs by flow cytometry analysis; assay type: functional, cell-based; conditions: dose 3.75-15 µM
[8] = test system: Huh-7; experiment: Induction of apoptosis in human Huh-7 cells assessed as increase in cleaved caspase-3 expression at 5 to 20 uM; assay type: functional, cell-based; conditions: dose 5-20 µM
[9] = test system: MDA-MB-231; experiment: Antiproliferative activity against human MDA-MB-231 cells after 72 hrs by MTT assay; assay type: functional, cell-based; conditions: MDA-MB-231, 72 h
[10] = test system: HCCLM9; experiment: Antiproliferative activity against human HCCLM9 cells at 1.25 to 5 uM after 24 hrs by EdU incorporation assay; assay type: functional, cell-based; conditions: dose 1.25-5 µM
[11] = test system: HCCLM9; experiment: Induction of cell cycle arrest in human HCCLM9 cells assessed as decrease in cell accumulation at G0/G1 phase at 3.75 to 15 uM measured after 48 hrs by flow cytometry analysis; assay type: functional, cell-based; conditions: dose 3.75-15 µM
[12] = Toxicity in male BALB/c nude mouse xenografted with human HCCLM9 cells assessed as effect on body weight at 15 mg/kg, iv administered once a day for 21 days; assay type: organism-based; conditions: in vivo, 504 h, time 21 day
[13] = test system: HCCLM9; experiment: Antiproliferative activity against human HCCLM9 cells after 72 hrs by MTT assay; assay type: functional, cell-based; conditions: HCCLM9, 72 h
[14] = test system: HCCLM9; experiment: Induction of apoptosis in human HCCLM9 cells assessed as increase in cleaved caspase-3 expression at 3.75 to 15 uM; assay type: functional, cell-based; conditions: dose 3.75-15 µM
[15] = test system: HepG2; experiment: Antiproliferative activity against human HepG2 cells after 72 hrs by MTT assay; assay type: functional, cell-based; conditions: HepG2, 72 h
[16] = Half-life in male Sprague-Dawley rat at 100 mg/kg, ip; assay type: ADME, organism-based; conditions: in vivo
[17] = test system: SK-HEP1; experiment: Antiproliferative activity against human SK-HEP1 cells after 72 hrs by MTT assay; assay type: functional, cell-based; conditions: SK-HEP1, 72 h
[18] = test system: HCCLM9; experiment: Inhibition of MMP-9 expression in human HCCLM9 cells at 3.75 to 15 uM measured by western blot analysis; assay type: functional, cell-based; conditions: dose 3.75-15 µM
[19] = test system: Huh-7; experiment: Induction of apoptosis in human Huh-7 cells assessed as increase in cytochrome C expression at 5 to 20 uM; assay type: functional, cell-based; conditions: dose 5-20 µM
[20] = test system: Huh-7; experiment: Induction of mitochondrial dysfunction in human Huh-7 cells assessed as decrease in MMP levels at 5 to 20 uM; assay type: functional, cell-based; conditions: dose 5-20 µM
[21] = test system: MCF7; experiment: Antiproliferative activity against human MCF7 cells after 72 hrs by MTT assay; assay type: functional, cell-based; conditions: MCF7, 72 h
[22] = test system: Huh-7; experiment: Induction of apoptosis in human Huh-7 cells assessed as reduction in Bcl-2 expression at 5 to 20 uM; assay type: functional, cell-based; conditions: dose 5-20 µM
[23] = test system: HCCLM9; experiment: Induction of cell cycle arrest in human HCCLM9 cells assessed as increase in cell accumulation at G2/M phase at 3.75 to 15 uM measured after 48 hrs by flow cytometry analysis; assay type: functional, cell-based; conditions: dose 3.75-15 µM

CNCc1cc2c(cc1-c1cc3ccc4c(c3cn1)OCO4)OCO2
IC50 [1]: > 150 µM
Activity [2]: Non-Toxic
Activity [3]: Active
IC50 [4]: 64 µM
inhibition [5]: Active
Activity [6]: Active
Activity [7]: Active
Activity [8]: Active
IC50 [9]: 19.9 µM
Activity [10]: Active
Activity [11]: Active
Activity [12]: Non-Toxic
IC50 [13]: 6.83 µM
Activity [14]: Active
IC50 [15]: 52 µM
half-life [16]: 3.73 h
IC50 [17]: 16.5 µM
inhibition [18]: Active
Activity [19]: Active
Activity [20]: Active
IC50 [21]: 22.4 µM
Activity [22]: Active
Activity [23]: Active
